Literature values, collected in patent publication US20240189234A1, “SILICON PARTICLES FOR DRUG DELIVERY” (NACAMED AS, priority 2021, published 2024).

settings: calculated log P values from Foye's Principles of Medicinal Chemistry

| SMILES | log P |
| --- | --- |
| CCN(CC)CCCC(C)Nc1cc(OC)cc2cccnc12 (centres unmarked) [pamaquine] | 4.38 |
| OCc1cc(C(O)CNCCCCCCOCCCCc2ccccc2)ccc1O (centres unmarked) [salmeterol] | 3.71 |
| O=C(O)c1ccccc1Nc1cccc(C(F)(F)F)c1 [flufenamic acid] | 5.22 |
| CCCCN(CCCC)CCCOC(=O)c1ccc(N)cc1 [butacaine] | 4.62 |
| CC(C(=O)O)c1ccc(-c2ccccc2)c(F)c1 (centres unmarked) [flurbiprofen] | 3.66 |
| CN(C)CCOc1ccccc1Cc1ccccc1 [phenyltoloxamine] | 3.46 |
| OCCN1CCN(CCCN2c3ccccc3Sc3ccc(Cl)cc32)CC1 [perphenazine] | 3.94 |
| CC(C)(C)C(=O)OCOC(=O)[C@@H]1N2C(=O)[C@@H](NC(=O)[C@H](N)c3ccccc3)[C@H]2SC1(C)C [pivampicillin] | 3.88 |
| O=C(CCCN1CC=C(n2c(=O)[nH]c3ccccc32)CC1)c1ccc(F)cc1 [droperidol] | 3.10 |
| Cc1ccccc1N1C(=O)c2cc(S(N)(=O)=O)c(Cl)cc2NC1C (centres unmarked) [metolazone] | 3.16 |
| CN1CCN(CCCN2c3ccccc3Sc3ccc(Cl)cc32)CC1 [prochlorperazine] | 4.65 |
| OCCN1CCN(CC/C=C2/c3ccccc3Sc3ccc(C(F)(F)F)cc32)CC1 [flupenthixol] | 3.67 |
| CCCN(CC)C(CC)C(=O)Nc1c(C)cccc1C (centres unmarked) [etidocaine] | 3.57 |
| Oc1ccc2c(c1)[C@@]13CCCC[C@@]1(O)[C@@H](C2)N(CC1CCC1)CC3 [butorphanol] | 3.54 |
| CC(=O)CC(c1ccccc1)c1c(O)c2ccccc2oc1=O (centres unmarked) [warfarin] | 3.13 |
| CNCC[C@@H](Oc1ccccc1C)c1ccccc1 [atomoxetine] | 3.36 |
| CC(C)C(=O)Oc1ccc(CO)cc1[C@H](CCN(C(C)C)C(C)C)c1ccccc1 [fesoterodine] | 5.08 |
| CN1CCC2=C(C1)C(c1ccccc1)c1ccccc12 (centres unmarked) [phenindamine] | 3.81 |
| c1ccc(CN(CC2=NCCN2)c2ccccc2)cc1 [antazoline] | 3.58 |
| CN(C)CCC(c1ccc(Br)cc1)c1ccccn1 (centres unmarked) [brompheniramine] | 3.24 |
| CN1CCCC(CN2c3ccccc3Sc3ccccc32)C1 (centres unmarked) [mepazine] | 5.04 |
| O=C(O)c1cc(/N=N/c2ccc(S(=O)(=O)Nc3ccccn3)cc2)ccc1O [sulfasalazine] | 3.05 |
| Clc1ccc(C/C(=C\CN2CCCC2)c2ccccc2)cc1 [pyrrobutamine] | 4.57 |
| Cc1ncc2n1-c1ccc(Cl)cc1C(c1ccccc1F)=NC2 [midazolam] | 3.80 |
| CN1CCC(CN2c3ccccc3Sc3ccccc32)C1 (centres unmarked) [methdilazine] | 4.64 |
| Cc1c(O)cccc1C(=O)N[C@@H](CSc1ccccc1)[C@H](O)CN1C[C@H]2CCCC[C@H]2C[C@H]1C(=O)NC(C)(C)C [nelfinavir] | 7.28 |

| SMILES | log P |
| --- | --- |
| CN(C)CCOC(c1ccccc1)c1ccc(Br)cc1 (centres unmarked) [bromodiphenhydramine] | 4.03 |
| N[C@@H](Cc1cc(I)c(Oc2ccc(O)c(I)c2)c(I)c1)C(=O)O [liothyronine] | 3.91 |
| CC(=O)O[C@H]1C[C@@]2(C)[C@@H](C[C@@H](O)[C@H]3[C@@]4(C)CC[C@@H](O)[C@@H](C)[C@@H]4CC[C@@]32C)/C1=C(\CCC=C(C)C)C(=O)O [fusidic acid] | 5.76 |
| CC(COc1ccccc1)N(CCCl)Cc1ccccc1 (centres unmarked) [phenoxybenzamine] | 3.69 |
| O=C1CN=C(c2ccccc2)c2cc(Cl)ccc2N1CC1CC1 [prazepam] | 3.70 |
| C=CCN1CC[C@]23CCCC[C@H]2[C@H]1Cc1ccc(O)cc13 [levallorphan] | 3.85 |
| CC(C)(C)NC(=O)[C@H]1CC[C@H]2[C@@H]3CC[C@H]4NC(=O)C=C[C@]4(C)[C@H]3CC[C@]12C [finasteride] | 3.83 |
| CCN(CC)CCN1C(=O)CN=C(c2ccccc2F)c2cc(Cl)ccc21 [flurazepam] | 4.84 |
| O=C1c2ccccc2C(=O)C1c1ccccc1 [phenindione] | 3.19 |
| CNCCC(Oc1ccc(C(F)(F)F)cc1)c1ccccc1 (centres unmarked) [fluoxetine] | 3.93 |
| CCOC(=O)OC(C)OC(=O)[C@@H]1N2C(=O)[C@@H](NC(=O)[C@H](N)c3ccccc3)[C@H]2SC1(C)C (some centres unmarked) [bacampicillin] | 3.52 |
| CC(CN(C)C)CN1c2ccccc2Sc2ccccc21 (centres unmarked) [trimeprazine] | 5.04 |
| CC(C)C(=O)Nc1ccc([N+](=O)[O-])c(C(F)(F)F)c1 [flutamide] | 3.52 |
| O=C(O)COc1ccc(C(=O)c2cccs2)c(Cl)c1Cl [ticrynfen] | 3.05 |
| CNCCCC12CCC(c3ccccc31)c1ccccc12 [maprotiline] | 4.36 |
| CC[C@H]1CN2CCc3cc(OC)c(OC)cc3[C@@H]2C[C@@H]1C[C@H]1NCCc2cc(OC)c(OC)cc21 [Emetine] | 3.82 |
| CN(C)CCC=C1c2ccccc2COc2ccccc21 [doxepin] | 3.85 |
| Cc1ccsc1C(=CCCN1CCC[C@@H](C(=O)O)C1)c1sccc1C [tiagabine] | 4.03 |
| CC(=O)N(CC(C)C(=O)O)c1c(I)cc(I)c(N)c1I (centres unmarked) [iocetamic acid] | 4.57 |
| CCN[C@@H](C)Cc1cccc(C(F)(F)F)c1 [dextrofenfluramine] | 3.55 |
| O=C(O)c1cc(-c2ccc(F)cc2F)ccc1O [diflunisal] | 3.65 |
| Clc1ccc(COC(Cn2ccnc2)c2ccc(Cl)cc2Cl)c(Cl)c1 (centres unmarked) [miconazole] | 4.97 |
| COc1ccc2c(c1)N(C[C@H](C)CN(C)C)c1ccccc1S2 [methotrimeprazine] | 4.94 |
| CCN(CC)C(C)CN1c2ccccc2Sc2ccccc21 (centres unmarked) [ethopropazine] | 4.77 |
| CC[C@]1(O)C[C@H]2CN(CCc3c([nH]c4ccccc34)[C@@](C(=O)OC)(c3cc4c(cc3OC)N(C=O)[C@H]3[C@@](O)(C(=O)OC)[C@H](OC(C)=O)[C@]5(CC)C=CCN6CC[C@]43[C@@H]65)C2)C1 [vincristine] | 5.75 |
| CN[C@H]1CC[C@@H](c2ccc(Cl)c(Cl)c2)c2ccccc21 [sertraline] | 5.08 |

| SMILES | log P |
| --- | --- |
| CC1(C)[C@@H](OC(=O)CCC(=O)O)CC[C@]2(C)[C@H]3C(=O)C=C4[C@@H]5C[C@@](C)(C(=O)O)CC[C@]5(C)CC[C@@]4(C)[C@]3(C)CC[C@@H]12 [carbenoxolone] | 6.63 |
| OC(CNCC(O)C1CCc2cc(F)ccc2O1)C1CCc2cc(F)ccc2O1 (centres unmarked) [nebivolol] | 4.08 |
| CC(C)[C@@]1(NC(=O)[C@@H]2C[C@@H]3c4cccc5[nH]cc(c45)C[C@H]3N(C)C2)O[C@@]2(O)[C@@H]3CCCN3C(=O)[C@H](Cc3ccccc3)N2C1=O [dihydroergocristine] | 6.55 |
| Cc1ccc(N(CC2=NCCN2)c2cccc(O)c2)cc1 [phentolamine] | 4.08 |
| CNCCC=C1c2ccccc2CCc2ccccc21 [nortriptyline] | 3.97 |
| CO[C@@H]1[C@@H](OC(N)=O)[C@@H](O)[C@H](Oc2ccc3c(O)c(NC(=O)c4ccc(O)c(CC=C(C)C)c4)c(=O)oc3c2C)OC1(C)C [novobiocin] | 3.74 |
| CCN(CC)CCNc1ccc(CO)c2sc3ccccc3c(=O)c12 [hycanthone] | 3.81 |
| Cc1cccc(Nc2ccccc2C(=O)O)c1C [mefenamic acid] | 4.83 |
| CCC(Cc1c(I)cc(I)c(N)c1I)C(=O)O (centres unmarked) [iopanoic acid] | 4.65 |
| CN1CCN=C(c2ccccc2)c2cc(Cl)ccc21 [medazepam] | 3.89 |
| CC(C(=O)O)c1cccc(Oc2ccccc2)c1 (centres unmarked) [fenoprofen] | 3.72 |
| CCC(=O)C(CC(C)N1CCCCC1)(c1ccccc1)c1ccccc1 (centres unmarked) [dipipanone] | 5.10 |
| CC[C@]1(O)C[C@@H]2CN(CCc3c([nH]c4ccccc34)[C@@](C(=O)OC)(c3cc4c(cc3OC)N(C)[C@H]3[C@@](O)(C(N)=O)[C@H](O)[C@]5(CC)C=CCN6CC[C@]43[C@@H]65)C2)C1 [vindesine] | 4.94 |
| O=C(O)Cc1ccccc1Oc1ccc(Cl)cc1Cl [fenclofenac] | 4.59 |
| CN1CC[C@]23CCCC[C@H]2[C@H]1Cc1ccc(O)cc13 [leverphanol] | 3.26 |
| NCCCC[C@H](N[C@@H](CCc1ccccc1)C(=O)O)C(=O)N1CCC[C@H]1C(=O)O [Lisinopril] | 3.47 |
| CCC(=O)O[C@](Cc1ccccc1)(c1ccccc1)[C@H](C)CN(C)C [propoxyphene] | 4.10 |
| O=c1[nH]c2ccccc2n1C1CCN(CCCC(c2ccc(F)cc2)c2ccc(F)cc2)CC1 [pimozide] | 5.57 |
| N#CC(CCN1CCC(C(=O)O)(c2ccccc2)CC1)(c1ccccc1)c1ccccc1 [diphenoxin] | 3.97 |
| Cc1ccccc1C(OCCN(C)C)c1ccccc1 (centres unmarked) [orphenadrine] | 3.33 |
| CCCCN1CCCCC1C(=O)Nc1c(C)cccc1C (centres unmarked) [bupivacaine] | 3.31 |
| CC(CN(C)C)CN1c2ccccc2CCc2ccccc21 (centres unmarked) [trimipramine] | 4.71 |
| CN(C)CCC=C1c2ccccc2CCc2ccccc21 [amitriptyline] | 4.41 |
| CN(C)C(=O)C(CCN1CCC(O)(c2ccc(Cl)cc2)CC1)(c1ccccc1)c1ccccc1 [loperamide] | 4.15 |
| CC(=O)OCCN1CCN(CCCN2c3ccccc3Sc3ccc(Cl)cc32)CC1 [thiopropazate] | 4.76 |
